{"source": "patent US20260199213A1", "about": "“PEPTIDE HAVING ACTIVITY OF IMPROVING STATE OF SKIN, AND USE THEREOF” (CAREGEN CO., LTD., priority 2022, published 2026)", "format_in_all_cases": "cell-based", "key": {"AQP3": {"tested_on": "AQP3", "test": "AQP3 expression reduced by ultraviolet rays in HaCaT cells (RT-PCR)", "conditions": "15 mJ/cm^2 UV, 10 μM, 50 μM or 1000 μM peptide, 8 hours", "procedure": "In this example, the aim was to confirm the effect of the peptide according to an embodiment on the recovery of skin barrier factors in damaged skin cells by evaluating changes in the levels of skin barrier factors in skin cells reduced by ultraviolet irradiation.\nSpecifically, HaCaT cells were seeded in a 6-well plate at a density of 5×10^5 cells/well and cultured for 24 hours. Next, the cells were washed once with serum-free DMEM media, and 10 μM, 50 μM or 1000 μM of the peptide consisting of the amino acid sequence of SEQ ID NO: 1 was dispensed into 1 mL of the serum-free media, and cultured in a CO2 incubator at 37° C. for 1 hour. Next, the above culture was transferred to an e-tube, mixed with 1 ml of PBS, and dispensed into a well plate. Next, using a UV irradiator (VILBER LOURMAT, Cat No.: 3102-BSU, France), 15 mJ/cm^2 ultraviolet rays were irradiated to the HaCaT cells. Next, the PBS in the well plate was removed, 900 μL of the culture medium in which the peptides were dispensed was added, and the plate was cultured in a CO2 incubator at 37° C. for 8 hours. Next, the culture was washed twice with PBS, and RNA was isolated from the culture using easy blue (iNtRON, Cat. No.: 17061, Korea). Next, using an RT kit (Enzynomics, Cat. NO.: RT200, Korea), the isolated RNA was reverse transcribed to synthesize the respective cDNA. […]"}, "sirtuin-1 (SIRT-1)": {"tested_on": "sirtuin-1 (SIRT-1)", "test": "SIRT-1 expression by RT-PCR in HaCaT cells", "conditions": "10 μM, 50 μM or 1000 μM peptide, 24 hours", "procedure": "(§1) In this example, the aim was to confirm the effect of the peptides according to an example on strengthening the skin barrier, by evaluating the expression levels of sirtuin-1 (SIRT-1) or aquaporin-3 (AQP3).\n(§2) Specifically, HaCaT cells were seeded in a 6-well plate at a density of 3×10^5 cells/well and cultured for 24 hours. Next, the cells were washed once with serum-free DMEM media, and 10 μM, 50 μM or 1000 μM of the peptide consisting of the amino acid sequence of SEQ ID NO: 1 was dispensed into 1 mL of the serum-free media, and cultured in a CO2 incubator at 37° C. for 24 hours. Next, the culture was washed twice with PBS, and RNA was isolated from the culture using easy blue (iNtRON, Cat. No.: 17061, Korea). Next, using an RT kit (Enzynomics, Cat. NO.: RT200, Korea), the isolated RNA was reverse transcribed to synthesize the respective cDNA. Next, using the synthesized 1 ug cDNA, primers for SIRT-1 or AQP3, and a PCR kit (Enzynomics, Cat. No.: P581T, Korea), polymerase chain reaction (PCR) was performed. Meanwhile, in this example, an untreated group was used as the control group, and a group to which EGF was added was used as a positive control group, the nucleotide sequences of the primers used in this example are shown in Table 3 below."}, "aquaporin-3 (AQP3)": {"tested_on": "aquaporin-3 (AQP3)", "test": "AQP3 expression by RT-PCR in HaCaT cells", "conditions": "10 μM, 50 μM or 1000 μM peptide, 24 hours", "procedure": "as §1, §2"}, "procollagen I alpha": {"tested_on": "procollagen I alpha", "test": "Procollagen I alpha protein level by Collagen ELISA in NIH3T3 cells", "conditions": "10 μM, 50 μM or 1000 μM peptide, 72 hours", "procedure": "Additionally, to evaluate the expression levels of procollagen I alpha and hyaluronic acid at the protein level, NIH3T3 cells or HaCaT cells were seeded at a density of 1×10^4 cells/well in 24-well plates and then cultured for 24 hours. Next, the cells were washed once with serum-free DMEM media, and 10 μM, 50 μM or 1000 μM of the peptide consisting of the amino acid sequence of SEQ ID NO: 1 was dispensed into 2 mL of the serum-free media, and cultured in a CO2 incubator at 37° C. for 72 hours. Next, the culture was centrifuged to settle the suspended matter, and the supernatant was transferred to an e-tube. Next, Collagen ELISA (abcam, Cat No.: ab210579, UK) and HA ELISA (ECHELON biosciences, Cat No.: K-1200, USA) were performed on the centrifuged culture. Meanwhile, in this example, an untreated group was used as the control group, and a group to which TGF-β1 or EGF was added was used as the positive control group."}}, "data": [{"substance": "GPRGDP [SEQ ID NO: 1]", "values": [{"measurement": "expression of AQP3 reduced by ultraviolet irradiation", "setting": "AQP3", "result": "increased or restored"}, {"measurement": "expression of skin barrier factor SIRT-1", "setting": "sirtuin-1 (SIRT-1)", "result": "increases"}, {"measurement": "expression of skin barrier factor AQP3", "setting": "aquaporin-3 (AQP3)", "result": "increases"}, {"measurement": "expression of procollagen I alpha at the protein level", "setting": "procollagen I alpha", "result": "increased"}]}]}
